Results on three molecules are retold here after patent US11939302B2, “Compounds for the treatment of Alzheimer's disease” (The Governors of the University of Alberta, priority 2020, dated 2024).

No end group written: not given here.

One assay relates to long-term potentiation. Conditions: hippocampus of TgCRND8 mice; Kimura et al., 2012; 2016; cited from earlier work.
In the next assay the test system is Aβ toxicity. Conditions: Jhamandas et al., 2004; 2011; 2012; cited from earlier work.
For another assay, the system named is N2a neuronal cells. Description: MTT cell death assay, amyloid beta toxicity. In kind it is cell-based, mouse. Conditions: N2a cell line; Aβ1-42 10 μM, soluble oligomeric; 24-48 h; FIG. 4. As for the experimental part: MTT Cell Death Assay. The N2a (mouse) and SK-N-SH (human) neuronal cells were seeded to 5000 cells/well in a 96-well plate in DMEM medium, 10% FBS and incubated overnight. Cells in culture medium were incubated either with or without the assay compounds and Aβ1-42, 10 μM for 24-48 h. At the end of treatment, 20 μL of 5 mg/mL 3-(4,5-dimethylthiazol-2-yl)-2,5-diphenyltetrazolium bromide (MTT, Sigma) was added to each well and incubated at 37° C. for 3 h. Medium was removed, 100 μL of MTT solvent (isopropanol with 4 mM HCl) was added to each well, and the plates were incubated for 30 min at room temperature on a rotating shaker. Plates were analyzed on a microplate reader at a 562 nm wavelength.
Background: Tetrazolium assays rely on reduction of a dye to a coloured formazan, in cell work by metabolically active cells.

In assay [1] the target is T1, amylin receptor subtype 3 (AMY3) (Homo sapiens, UniProt O60896+P30988).
T1 construct: expressed in transfected cells
T1 sequence (P30988 25-474): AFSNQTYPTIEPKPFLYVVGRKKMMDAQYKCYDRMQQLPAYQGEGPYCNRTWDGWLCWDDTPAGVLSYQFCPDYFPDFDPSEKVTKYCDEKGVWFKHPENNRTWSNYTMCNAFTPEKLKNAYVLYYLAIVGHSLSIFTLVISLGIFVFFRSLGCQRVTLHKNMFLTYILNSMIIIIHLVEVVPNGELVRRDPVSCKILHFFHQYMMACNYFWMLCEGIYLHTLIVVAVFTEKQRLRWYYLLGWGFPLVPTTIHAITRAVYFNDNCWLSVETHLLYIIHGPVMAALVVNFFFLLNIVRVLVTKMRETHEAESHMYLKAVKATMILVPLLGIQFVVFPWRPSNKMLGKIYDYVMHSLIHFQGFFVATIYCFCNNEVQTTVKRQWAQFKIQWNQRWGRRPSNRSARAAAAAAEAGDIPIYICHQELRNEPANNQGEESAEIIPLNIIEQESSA
T1 sequence (O60896 24-148 partner): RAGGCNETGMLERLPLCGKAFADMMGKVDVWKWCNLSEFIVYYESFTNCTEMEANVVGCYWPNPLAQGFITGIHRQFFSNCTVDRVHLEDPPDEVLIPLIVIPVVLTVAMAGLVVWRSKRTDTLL
Description: Kinetic intracellular Ca2+ changes (Fluo-8L-AM) in AMY3-HEK293 cells. Conditions: human amylin 0.5 μM; compound 0.01-10 μM range; FIG. 3. In kind it is cell-based. As for the experimental part:
Kinetic Intracellular Ca^2+ Changes. Dynamic changes of the free cytosolic Ca2+ concentration were monitored with microplate reader. For monitor amylin induced intracellular Ca^2+, AMY3-HEK293 cells were plated on 96 well cell culture plates and incubated at 37° C. for 12-36 h with DMEM, 10% FBS, and Zeocin medium. For Ca^2+ changes, the AMY3-HEK293 cells were washed twice with assay solution which ion content similar to extracellular brain fluid thus containing the following: 130 mM NaCl, 4 mM KCl, 1 mM MgCl2, 2 mM CaCl2), 10 mM HEPES, and 10 mM glucose (pH 7.35). Then incubated with the membrane-permeant fluorescent Ca^2+-sensitive dye Fluo-8L-AM (AAT Bioquest, Inc., Sunnyvale, CA), with 5 μM of the agent for 40 min at room temperature (20-23° C.) in assay solution. The test compounds were added in various concentrations of 0.01, 0.1, 1, and 10 μM for 10 min and kinetic measured the fluorescent intensity with Varioskan-LUX microplate reader (Thermo Fisher Scientific, Waltham, MA). Human amylin were dissolved in sterile bidistilled water at 1 mM stock solution and incubated at room temperature for 10 min before dilution with assay solution for use at a final concentration of 0.5 μM. Fluorescent intensity was measured at excitation/emission wavelength of 488/514 nm, excitation bandwidth 12 nm, kinetic interval 1 min, and measure time at 100 ms. […]

Assay [2] concerns the target T1, amylin receptor subtype 3 (AMY3). Kind of assay: cAMP ELISA in AMY3-HEK cells, reduction of human amylin induced cAMP. In kind it is cell-based. Conditions: FIG. 2; for Mode of action indicated by cAMP assays in amylin receptor subtype 3 expressing cells: AMY3 expressing cells; for Human amylin generation of cAMP in the presence of compound: human amylin 0.1 μM, compound 10 μM, AMY3-HEK cells. The procedure:
Compounds described herein were screened using a cAMP (cyclic adenosine monophosphate) assay in amylin receptor subtype 3 expressing cells (See FIG. 1).
Cell Cultures. Amylin receptor subtypes (AMY3-HEK cells) stably expressed in human embryonic kidney (HEK293) cell-line were generated and characterized as described in a previous published article (Fu et al., J. Biol. Chem. 2012). The AMY3-HEK cells were grown in a 5% CO2 humidified incubator at 37° C. with DMEM, 10% FBS, and 100 μg/mL Zeocin medium.
ELISA (enzyme-linked immunosorbent assay). Cellular cAMP levels were measured using a parameter cyclic AMP assay kit (R&D Systems) according to the manufacturer's instructions. Briefly, AMY3-HEK cells were plated on 24-well plates overnight. These cells were then incubated with or without the assay compounds and hAmylin for 5 min. The cells were lysed with lysis buffer provided in the assay kit. Standard curves were plotted using the cAMP standards provided in the ELISA kits. All samples were analyzed in duplicate. The plate was measured at 450 nm. Data was plotted, and non-linear regression was fitted with four parameters using Prism software (GraphPad Software, La Jolla, CA).
Compounds were assayed based on potency of reduction at 10 μM of 0.1 μM human Amylin (hAmylin) induced cAMP increases.
In general terms: An ELISA detects its analyte on a solid surface through an enzyme-linked reagent.

Assay [3] concerns hippocampal long term potentiation (LTP). Description: Hippocampal long term potentiation (LTP) electrophysiology in brain slices. On the set-up: species or system mice. The settings on record: for LTP levels in hippocampal slices from transgenic AD mice (TgCRND8), chronically depressed LTP: compared with age matched wild type control (WT_Cont); for Effect on LTP from wild type control (WT_Cont) mice: WT_Cont slices; for Amyloid beta (Aβ)-induced depression of LTP / Human amylin-induced depression of LTP: compound 1 μM, brain hippocampal slices. From the text:
Hippocampal long term potentiation (LTP) electrophysiology experiments: an in vitro cellular surrogate for memory. Brains were quickly removed from mice following decapitation, placed in a cold artificial cerebral spinal fluid (aCSF) on a vibratome chamber and transverse sections cut through the hippocampus. The aCSF contained (in mM) 124 NaCl, 3 KCl, 2.4 CaCl2), 2 MgCl2, 1.25 NaH2PO4, 26 NaHCO3 and 10 D-glucose, and was equilibrated with 95% 02 and 5% CO2. Hippocampal slices ([…]) were maintained in aCSF-filled holding chamber at room temperature for at least 1 hour and individually transferred to the submerged glass bottom recording chamber, which was constantly perfused with aCSF (2 mL/min) at 30° C. Field excitatory postsynaptic potential (fEPSP) was recorded with a metallic (Pt/Ir) electrode (FHC, Bowdoin, ME) from the stratum radiatum layer of Cornu ammonis 1 region of the hippocampus (CA1) area, and the Schaffer collateral afferents were stimulated with 100-μs test pulses via a bipolar cluster electrode (FHC) (Kimura et al., 2012, Kimura et al. 2016). To evaluate basal synaptic transmission, we applied different stimulation strengths (75 μA to 300 μA in steps of 25 μA) and plotted the amplitudes of presynaptic fiber volleys versus the corresponding fEPSP slopes to compare the slope of input/output (I/O) curves of fEPSP. For long-term potentiation (LTP) experiments, the stimulus strength was set to elicit 40-50% of the maximum fEPSP amplitude and test pulses were delivered to Schaffer collaterals once every 30 seconds. LTP was induced by 3-theta-burst stimulation (3-TBS) protocol (each burst consisted of 4 pulses at 100 Hz with a 200-ms inter-burst interval). Before 3-TBS or drug application, the responses were monitored for at least 10 minutes to ensure a stable baseline of fEPSP. […] Results were from various treatment groups were plotted as histograms with means±standard error (SE). Statistical analysis was performed using one-way ANOVA followed by post-hoc Tukey's honestly significant difference (HSD) test (for multiple comparisons) or Student's t test (for pair-wise comparisons). All drugs and chemicals were applied directly to the slice via bath perfusion, which allowed for a complete exchange of the perfusate in less than a minute and a half.

“AC253: peptide antagonist of the amylin receptor, 24 amino acids, SEQ ID NO: 1 (Ac-LGRLSQELHRLQTYPRTNTGSNTY)”: in the assay with long-term potentiation, the “Aβ- or human amylin-induced depression of long-term potentiation” value was “reverse impairment”. In addition, the “Neuroprotection against Aβ toxicity” value in the assay with Aβ toxicity is on record as “neuroprotective”.

Consider `O=C1CN(C(=O)CCO)c2ccccc2N1` [Compound 10, 4-(3-hydroxypropanoyl)-3,4-dihydroquinoxalin-2(1H)-one], for which the “Cytoprotection against amyloid beta (Abeta) toxicity, cell viability by MTT” value in the assay on N2a neuronal cells is recorded as “cytoprotective”. Moreover, the “Elevations in intracellular calcium evoked by human amylin” value in assay [1] is on record as “attenuated”. In assay [2], the “Mode of action indicated by cAMP assays in amylin receptor subtype 3 expressing cells” value is given as “amylin receptor antagonists” and the “Human amylin generation of cAMP in the presence of compound” value was “attenuated”. Also, in assay [3], the “LTP levels in hippocampal slices from transgenic AD mice (TgCRND8), chronically depressed LTP” value is “increased LTP levels to levels observed in WT_Cont mice”; the “Effect on LTP from wild type control (WT_Cont) mice” value is “no effects”; the “Amyloid beta (Aβ)-induced depression of LTP” value is reported as “blocked”; the “Human amylin-induced depression of LTP” value is on record as “blocked”.

For the molecule `O=c1[nH]c2ccccc2n(CCCO)c1=O` [Compound 1, 1-(3-hydroxypropyl)-1,4-dihydroquinoxaline-2,3-dione], the “Cytoprotection against amyloid beta (Abeta) toxicity, cell viability by MTT” value in the assay with N2a neuronal cells is on record as “cytoprotective”. Further, in assay [1], the “Elevations in intracellular calcium evoked by human amylin” value was “attenuated”. Moreover, in assay [2], the “Mode of action indicated by cAMP assays in amylin receptor subtype 3 expressing cells” value was “amylin receptor antagonists” and the “Human amylin generation of cAMP in the presence of compound” value is recorded as “attenuated”. Besides, in assay [3], the “LTP levels in hippocampal slices from transgenic AD mice (TgCRND8), chronically depressed LTP” value is “increased LTP levels”; the “Effect on LTP from wild type control (WT_Cont) mice” value is “no effects”; the “Amyloid beta (Aβ)-induced depression of LTP” value is recorded as “blocked”; the “Human amylin-induced depression of LTP” value is “blocked”.
